Columns and labels:
[1] = test system: inflammatory biomarkers in PBMCs; experiment: Post-hoc analysis of inflammatory biomarkers in PBMCs, phase 3 trial, schizophrenia with co-morbid depression; format: in vivo, human; settings: Day 28, 60 mg lumateperone tosylate once daily
Description: A randomized, double-blind, placebo-controlled, phase 3 clinical trial was conducted with 450 patients with schizophrenia, aged 18 to 60 years, who were experiencing an acute exacerbation of psychosis. Patients were included if they were experiencing an acute exacerbation of psychosis, defined as a total score on the Brief Psychiatric Rating Scale of […] or higher, with a score of 4 or higher on 2 or more positive symptoms, and onset of the acute episode within 4 weeks of screening. Patients were required to have a score of 4 or higher, indicating moderate to severe disease severity, on the Clinical Global Impression-Severity of Illness (CGI-S) at screening and baseline. Severity of illness was confirmed at baseline by a Positive and Negative Syndrome Scale (PANSS) total score of 70 or higher, indicating moderate to extreme symptoms of schizophrenia. A subgroup of these patients experienced co-morbid depression symptoms at baseline (defined as having a Calgary Depression Scale for Schizophrenia (CDSS) score greater than 6 at baseline). Full details of the clinical study were reported in Correll et al., JAMA Psychiatry, 77 (4): 349-358 (2020).
Patients were randomized 1:1:1 (150 patients in each arm) to receive, once daily for 28 days, cither 60 mg lumatepcrone tosylate (42 mg free base), 40 mg lumatepcrone tosylate (28 mg free base), or placebo.
Using blood samples stored from the study, a post-hoc analysis of inflammatory biomarkers in PBMCs from the patients with schizophrenia and co-morbid depression is conducted. […] Day 0 samples are available for 20 patients, while day 28 samples are available only for 18 patients. Mean baseline CDSS is 10.0, and mean baseline PANSS total score is 88.7 in the selected patients.
Samples were processed to isolate PBMC according to standard procedures using the Ficoll-Paque method. Statistical analysis was performed using the paired t-test, two-tailed. Samples were tested for C-reactive protein (CRP), serum amyloid A (SAA), soluble ICAM-1, soluble VCAM-1, IL-1β, TNF-α, IL-6, IL-10, IL-2, IL-8, IL-13, and IFN-γ. ICAM-1 and VCAM-1 are expressed by the vascular endothelium, macrophages, and lymphocytes. Upon cytokine stimulation, their concentrations greatly increase. ICAM-1 can be induced by IL-1ß and TNF. ICAM and VCAM proteins may also be involved in pathogen transit into CNS.
The results are shown in the table below (biomarker levels expressed in ng/ml; some values of N are less than the patient totals due to samples with levels of biomarker below the minimum for quantification): […]

Sprague-Dawley rats = experiment: Novelty Induced Hypophagia (NIH); format: in vivo, rat; settings: naïve rats, Luma 1 mg/kg IP days 1 and 3; control 65.4
Description: Behavioral Evaluation. All behavioral tests are performed in the morning with adult male Sprague-Dawley rats (n=9-11 per group for the experiments with LPS, and n=13-14 per group for the naïve rats).
Novelty Induced Hypophagia (NIH). This conflict-based behavioral task assesses the impact of environmental stressors on conditioned approach response for a palatable food reward (Ramaker and Dulawa, 2017). Rats are habituated with diluted (1:3 milk/water) sweetened condensed milk which is accessible in their home cage for 1 hour each day for 3 consecutive days. Initially, animals are tested in their home cage under normal lighting. For testing after drug treatment, the latency to drink is recorded after rats are placed in a novel clean cage of the same dimensions with no bedding and under dim lighting (˜50 lux) with white paper under the cages to enhance aversion.
Basal levels of anxiety are also tested using 2 commonly used tests, NSFT and novelty induced hypophagia (NIH), in the absence of LPS. It is well documented that rodents experience increased stress levels when placed in a novel environment (Ramaker and Dulawa, 2017). These two tests exploit this feature by measuring latency to feed in food-deprived rats (NSFT), or latency to receive a reward to which they have been habituated prior to the test (NIH).

CN1CCN2c3c(cccc31)[C@@H]1CN(CCCC(=O)c3ccc(F)cc3)CC[C@@H]12 [Lumateperone, 4-((6bR,10aS)-3-methyl-2,3,6b,9,10,10a-hexahydro-1H-pyrido[3′,4′: 4,5]pyrrolo[1,2,3-de]quinoxaline-8 (7H)-yl)-1-(4-fluorophenyl)-1-butanone]
IL-10 level in PBMC, Median ([1]; Day 0 0.07): 0.21 ng/mL
IL-10 level in PBMC, Average ([1]; Day 0 0.09): 2.14 ng/mL
IL-2 level in PBMC, Median ([1]; Day 0 0.17): 0.25 ng/mL
IL-2 level in PBMC, Average ([1]; Day 0 0.18): 0.37 ng/mL
IL-6 level in PBMC, Median ([1]; Day 0 0.18): 0.32 ng/mL
IL-6 level in PBMC, Average ([1]; Day 0 0.20): 0.55 ng/mL
TNF-α level in PBMC, Average ([1]; Day 0 0.27): 0.83 ng/mL
TNF-α level in PBMC, Median ([1]; Day 0 0.27): 0.43 ng/mL
IFN-γ level in PBMC, Median ([1]; Day 0 1.01): 0.71 ng/mL
IFN-γ level in PBMC, Average ([1]; Day 0 1.11): 0.86 ng/mL
IL-13 level in PBMC, Median ([1]; Day 0 1.11): 1.56 ng/mL
IL-13 level in PBMC, Average ([1]; Day 0 1.31): 2.38 ng/mL
IL-1β level in PBMC, Median ([1]; Day 0 1.65): 0.74 ng/mL
IL-1β level in PBMC, Average ([1]; Day 0 1.76): 1.01 ng/mL
IL-8 level in PBMC, Median ([1]; Day 0 36.3): 44.0 ng/mL
sVCAM-1 level in PBMC, Median ([1]; Day 0 60.1): 42.0 ng/mL
CRP level in PBMC, Median ([1]; Day 0 61.3): 38.0 ng/mL
IL-8 level in PBMC, Average ([1]; Day 0 74.5): 105.3 ng/mL
CRP level in PBMC, Average ([1]; Day 0 78.8): 50.5 ng/mL
sVCAM-1 level in PBMC, Average ([1]; Day 0 78.9): 49.1 ng/mL
sICAM-1 level in PBMC, Median ([1]; Day 0 136.9): 83.6 ng/mL
sICAM-1 level in PBMC, Average ([1]; Day 0 184.8): 119.6 ng/mL
SAA level in PBMC, Median ([1]; Day 0 233.6): 147.3 ng/mL
SAA level in PBMC, Average ([1]; Day 0 286.9): 157.9 ng/mL
NIH - novel cage latency to drink (Sprague-Dawley rats): 30.5 s
